One data set deals with H-PGDS (Homo sapiens (Human), UniProt O60760). As to the kind of experiment: H-PGDS Fluorescence Polarization Binding Assay (FPBA). The note with it: H-PGDS-MBP fusion enzyme, fluorescent probe, reduced glutathione 5 mM, 60-90 minutes at room temperature, 96-well format. The protocol:
H-PGDS Fluorescence Polarization Binding Assay This assay essentially is available from Cayman Chemical Company as Catalog item #600007. The test data reported for the aforementioned Examples (H-PGDS FPBA IC50) were generated using a 96-well, instead of the 384-well, format. […] Assays were performed in 96-well microtiter plates in 100 μL of total sample volume. Excitation and emission wavelengths appropriate for the employed detection analyte were used. […] Twelve clean microfuge tubes were labeled A1 through A12. […] Dimethyl sulfoxide (50 μL) was added to each of tubes A1 through A11. The HQL-79 control solution was serially diluted by removing 50 μL from tube A12 and placing it in tube A11 with subsequent thorough mixing of the contents of tube A11. Next, 50 μL was removed from tube A11 and was placed into tube A10 with subsequent thorough mixing of the contents of tube A10. This process was repeated for tubes A9 through A2. […] A test compound may be dissolved in DMSO, ethanol, or methanol at several concentrations when the titration endpoint is unknown. […] Assay cocktail (95 μL) was added to each plate well. DMSO (5 μL) from microfuge tube A1 was added to each plate well A1 and B1. Positive control solution (5 μL) from microfuge tube A2 was added to each plate well A2 and B2. Positive control solution (5 μL) from microfuge tube A3 was added to each plate well A3 and B3. This procedure was continued until all the positive control standard dilutions were aliquoted. Test compound solutions (5 μL) were added to the wells. […] The IC50 for a particular test compound was obtained by performing a full concentration titration versus a full concentration titration of positive control. Comparison of a single concentration of a test compound to the maximum binding well provided an assessment of the relative affinity of the test compound for H-PGDS-MBP. The plate was covered and incubated for 60-90 minutes at room temperature. The FP signal is stable for at least two hours. […] The measurements were taken in the fluorescent polarization mode with the z-height set to the middle of the well and the G-factor set to 1.13 on a Tecan Safire 2 reader.

Where only a bound is given, the exact number is not on record here.

Chain of H-PGDS (O60760 whole entry, the tested form may be a part): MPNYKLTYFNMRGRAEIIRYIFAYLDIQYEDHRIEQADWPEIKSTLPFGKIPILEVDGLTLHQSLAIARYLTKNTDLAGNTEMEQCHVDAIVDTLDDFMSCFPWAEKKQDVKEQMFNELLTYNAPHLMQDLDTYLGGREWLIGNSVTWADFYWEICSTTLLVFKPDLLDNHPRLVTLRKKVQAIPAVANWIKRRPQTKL

In turn, `Fc1cccc(-c2nc(-c3cnc(-c4ccccc4)nc3)cs2)c1` [Example 58, 2-(3-fluorophenyl)-4-(2-phenylpyrimidin-5-yl)thiazole] came in with a melting point of 228 °C. Besides, the IC50 at H-PGDS is > 20 µM.

In turn, `c1ccc(Oc2ncc(-c3cnc(-c4ccccc4)[nH]3)cn2)cc1` [Example 38, 2-phenoxy-5-(2-phenyl-1H-imidazol-5-yl)pyrimidine] registered a melting point of 254 °C. For the same compound, the IC50 at H-PGDS turned out to be 4 µM.

`COc1ccc(-c2ncc(-c3cnc(-c4ccccc4)[nH]3)cn2)cc1OC` [Example 7, 2-(3,4-dimethoxyphenyl)-5-(2-phenyl-1H-imidazol-5-yl)pyrimidine] yielded a melting point of 231 °C. The IC50 on H-PGDS was found to be 3.5 µM.

As for `c1ccc(Cc2ncc(-c3cnc(Oc4ccccc4)nc3)[nH]2)cc1` [Example 39, 5-(2-benzyl-1H-imidazol-4-yl)-2-phenoxypyrimidine], the melting point was 60 °C. The compound also gave an IC50 at H-PGDS of 10 µM.

Take `O=C(O)C(F)(F)F.c1ccc(-c2ncc(-c3csc(C4CCNCC4)n3)cn2)cc1` [Example 61, 4-(4-(2-phenylpyrimidin-5-yl)thiazol-2-yl)piperidinium 2,2,2-trifluoroacetate]: the melting point was 290 °C. In addition, the IC50 at H-PGDS was 5 µM.

On to `c1ccc(-c2ncc(-c3cnc(C4CCNCC4)[nH]3)cn2)cc1` [Example 18, 2-phenyl-5-(2-(piperidin-4-yl)-1H-imidazol-5-yl)pyrimidine], for which the IC50 on H-PGDS came out at 1 µM.

In turn, `c1ccc(-c2ncc(-c3cnc[nH]3)cn2)cc1` [Example 5, 5-(1H-imidazol-5-yl)-2-phenylpyrimidine] registered a melting point of 216 °C. The IC50 on H-PGDS turned out to be 5 µM.

Turning to `c1ccc(Cc2nc(-c3cnc(-c4ccccc4)nc3)cs2)cc1` [Example 60, 2-benzyl-4-(2-phenylpyrimidin-5-yl)thiazole], the melting point is 170 °C. Besides, the IC50 on H-PGDS is > 20 µM.

Take `COCCCNC(=O)c1csc(-c2cnc(-c3ccccc3)nc2)n1` [Example 64, N-(3-methoxypropyl)-2-(2-phenylpyrimidin-5-yl)thiazole-4-carboxamide]: the melting point lay in the range of 134 to 136 °C. At H-PGDS, the IC50 came to 3.4 µM.

`c1ccc(-c2ncc(-c3ncco3)cn2)cc1` [Example 42, 2-(2-phenylpyrimidin-5-yl)oxazole]: the melting point lay in the range of 175 to 177 °C. At H-PGDS, this compound came in with an IC50 of 7.8 µM.

For `c1ccc(-c2ncc(-c3cnc(C4CCNC4)[nH]3)cn2)cc1` (racemic) [Example 30, (±)-2-phenyl-5-(2-(pyrrolidin-3-yl)-1H-imidazol-5-yl)pyrimidine], the IC50 on H-PGDS was determined as 2 µM.

At H-PGDS, `c1ccc(Cn2c(-c3cnc(-c4ccccc4)nc3)cnc2-c2ccccc2)cc1` [Example 1 (Step C), 5-(1-benzyl-2-phenyl-1H-imidazol-5-yl)-2-phenylpyrimidine] returned an IC50 of 15 µM.

The compound `O=C(O)c1cc(-c2cnc(Oc3ccccc3)nc2)[nH]n1` [Example 56, 5-(2-phenoxypyrimidin-5-yl)-1H-pyrazole-3-carboxylic acid] displayed an IC50 at H-PGDS of 5 µM.

`O=C(O)c1csc(-c2cnc(-c3ccccc3)nc2)n1` [Example 63, 2-(2-Phenylpyrimidin-5-yl)thiazole-4-carboxylic acid] returned an IC50 on H-PGDS of 1.1 µM.

Take `OC(N1CCCC(c2ncc(-c3cnc(-c4ccccc4)nc3)[nH]2)C1)C(F)(F)F` (stereo not shown) [Example 24, 2,2,2-trifluoro-1-(3-(4-(2-phenylpyrimidin-5-yl)-1H-imidazol-2-yl)piperidin-1-yl)ethanol]: the IC50 at H-PGDS amounted to 10 µM.

In turn, `c1cncc(-c2ncc(-c3cnc(-c4cccnc4)[nH]3)cn2)c1` [Example 12, 2-(pyridin-3-yl)-5-(2-(pyridin-3-yl)-1H-imidazol-5-yl)pyrimidine] had a melting point of 299 °C. Moreover, on H-PGDS, the IC50 came out at 1.3 µM.

For the compound `Cc1ccc(-c2cnc(-c3cccnc3)[nH]2)cn1` [Example 66, 2-methyl-5-(2-(pyridin-3-yl)-1H-imidazol-5-yl)pyridine], the IC50 on H-PGDS is > 10 µM.

Regarding `c1ccc(CN2CCCC(c3ncc(-c4cnc(-c5ccccc5)nc4)[nH]3)C2)cc1` (racemic) [Example 23, (±)-5-(2-(1-benzylpiperidin-3-yl)-1H-imidazol-5-yl)-2-phenylpyrimidine], the melting point turned out to be 179 °C. The compound also displayed an IC50 on H-PGDS of 0.6 µM.

`Cn1cncc1-c1cnc(-c2ccccc2)nc1` [Example 32, 5-(1-methyl-1H-imidazol-5-yl)-2-phenylpyrimidine] returned a melting point of 144 °C. On H-PGDS, this compound had a 50% inhibitory concentration (IC50) of 7.6 µM.

Consider `CC(=O)N1CCCC(c2nc(-c3cnc(-c4ccccc4)nc3)c[nH]2)C1` (stereo not shown) [1-(3-(4-(2-phenylpyrimidin-5-yl)-1H-imidazol-2-yl)piperidin-1-yl)ethanone], for which the IC50 on H-PGDS was 0.09 µM.

Regarding `Cc1nc(-c2ccccc2)sc1-c1cnc(-c2cccnc2)n1Cc1ccccc1` [Example 71, 5-(1-benzyl-2-(pyridin-3-yl)-1H-imidazol-5-yl)-4-methyl-2-phenylthiazole], the IC50 at H-PGDS is > 20 µM.

In turn, `CC(C)(C)OC(=O)N1CCC(n2nnc(-c3cnc(-c4ccccc4)nc3)n2)CC1` [Example 52, tert-butyl 4-(5-(2-phenylpyrimidin-5-yl)-2H-tetrazol-2-yl)piperidine-1-carboxylate] had a melting point of 178 to 180 °C.

Regarding `c1ccc(-c2ncc(-c3ncc(-c4ccccc4)o3)cn2)cc1` [Example 47, 5-phenyl-2-(2-phenylpyrimidin-5-yl)oxazole], the IC50 at H-PGDS is > 20 µM.

On to `CC(C)(C)OC(=O)c1csc(-c2cnc(-c3ccccc3)nc2)n1` [Example 62, tert-butyl 2-(2-phenylpyrimidin-5-yl)thiazole-4-carboxylate], for which, at H-PGDS, the IC50 turned out to be 5.9 µM.

On to `O=C(NCCN1CCOCC1)c1csc(-c2cnc(-c3ccccc3)nc2)n1` [Example 65, N-(2-morpholinoethyl)-2-(2-phenylpyrimidin-5-yl)thiazole-4-carboxamide], for which the IC50 at H-PGDS amounted to 2.5 µM.

In the case of `c1ccc(Cn2c(-c3ccccc3)cnc2-c2cnc(-c3ccccc3)nc2)cc1` [Example 44 (Step B), 5-(1-benzyl-5-phenyl-1H-imidazol-2-yl)-2-phenylpyrimidine], the IC50 on H-PGDS is 15 µM.

`O=C(N1CCCC(c2nc(-c3cnc(-c4ccccc4)nc3)c[nH]2)C1)C(F)(F)F` (racemic) [Example 27, (±)-2,2,2-trifluoro-1-(3-(4-(2-phenylpyrimidin-5-yl)-1H-imidazol-2-yl)piperidin-1-yl)methanone] gave a 50% inhibitory concentration (IC50) at H-PGDS of 0.09 µM.

On H-PGDS, `Cn1nnc(-c2cnc(-c3ccccc3)nc2)n1` [Example 73A, 5-(2-methyl-2H-tetrazol-5-yl)-2-phenylpyrimidine] returned an IC50 of 10 µM.

Regarding `Cc1ccc(-c2cnc(-c3cccnc3)n2Cc2ccccc2)cn1` [Example 66 (Step A), 5-(1-benzyl-2-(pyridin-3-yl)-1H-imidazol-5-yl)-2-methylpyridine], the IC50 on H-PGDS is > 10 µM.

Take `CNC(=O)N1CCCC(c2ncc(-c3cnc(-c4ccccc4)nc3)[nH]2)C1` (racemic) [Example 25B, (±)-N-methyl-3-(5-(2-phenylpyrimidin-5-yl)-1H-imidazol-2-yl)piperidine-1-carboxamide]: on H-PGDS, the IC50 was 0.3 µM.

Regarding `CC(C)(C)OC(=O)N1CCC(c2ncc(-c3cnc(-c4ccccc4)nc3)[nH]2)C1` (racemic) [Example 28, (±)-tert-butyl 3-(5-(2-phenylpyrimidin-5-yl)-1H-imidazol-2-yl)pyrrolidine-1-carboxylate], the melting point turned out to be 219 °C.

On H-PGDS, `c1ccc(-c2ncc(-c3cc(-c4cccnc4)n[nH]3)cn2)cc1` [Example 53, 2-phenyl-5-(3-(pyridin-3-yl)-1H-pyrazol-5-yl)pyrimidine] returned an IC50 of 1.3 µM.

In the case of `Cn1nnnc1-c1cnc(-c2ccccc2)nc1` [Example 73B, 5-(1-methyl-1H-tetrazol-5-yl)-2-phenylpyrimidine], the IC50 at H-PGDS was 20 µM.

`c1ccc(-c2cc(-c3cnc(-c4ccccc4)nc3)[nH]n2)cc1` [Example 45, 2-phenyl-5-(3-phenyl-1H-pyrazol-5-yl)pyrimidine] showed an IC50 at H-PGDS of 1.5 µM.

The compound `CC(C)(C)OC(=O)N1CCC(c2ncc(-c3cnc(-c4ccccc4)nc3)[nH]2)CC1` [Example 17, tert-butyl 4-(5-(2-phenylpyrimidin-5-yl)-1H-imidazol-2-yl)piperidine-1-carboxylate] showed an IC50 at H-PGDS of 0.15 µM.

Take `CNC(=O)N1CCCC(c2nc(-c3cnc(-c4ccccc4)nc3)cn2C(=O)NC)C1` (racemic) [Example 25A, (±)-N-methyl-3-(1-(methylcarbamoyl)-4-(2-phenylpyrimidin-5-yl)-1H-imidazol-2-yl)piperidine-1-carboxamide]: the concentration for half-maximal inhibition (IC50) at H-PGDS was determined as 0.62 µM.

Take `c1ccc(-c2ncc(-c3cn(C(c4ccccc4)(c4ccccc4)c4ccccc4)cn3)cn2)cc1` [Example 34 (Step A), 2-phenyl-5-(1-trityl-1H-imidazol-4-yl)pyrimidine]: at H-PGDS, the IC50 was > 20 µM.

The melting point is the temperature of the solid-liquid transition. Usually IC50 stands for the concentration at which inhibition is half-maximal. Higher therefore signals weaker potency.

These data come from patent publication US9126973B2, “Multiheteroaryl compounds as inhibitors of H-PGDS and their use for treating prostaglandin D2 mediated diseases” (Cayman Chemical Company, Incorporated, priority 2008, dated 2015).
